Results published in patent US20060286054A1, “PHARMACEUTICAL COMPOSITIONS FOR THE TREATMENT OF PSORIASIS” (Apollo Pharmaceutical, Inc., priority 2005, published 2006).
“And” between values parts separate entries of the source, which are not always exact repeats. Identical values can stand only once.

What was measured:
[1] = tested on: IL-2; assay: IL-2 release from THP-1 cells; assay type: cell-based; conditions: titration curve centered at ˜5 nM
[2] = tested on: Peripheral blood T cell; assay: T cell proliferation measured by the MTT assay; assay type: cell-based; conditions: for MTT % of Control: T cells, W/LPS
Protocol: Twenty ml aliquots of heparinized whole blood were subjected to density gradient centrifugation on Ficoll Hypaque. The buffy coat layers representing peripheral blood mononuclear cells (PBMCs) containing lymphocytes and monocytes were washed once, resuspended in RPMI 1640 containing 10% fetal calf sera and then depleted of B cells and monocytes with a T cell enrichment column (R&D Systems). The T cell preparations were centrifuged, resuspended in 5 ml of incomplete RPMI and counted using a hemocytometer. Aliquots of each cell preparation (40,000 cells in 200 μl of incomplete RPMI) were placed in the wells of 96 well culture plates and cultured overnight at 37° C. under 5% CO2. Twenty five μl of RPMI containing 1 μg/ml PMA and 8 μg/ml ionomycin. After culturing for 24 h, the plates were centrifuged at 1200 rpm for 10 min and the culture supernatants removed and saved. Two hundred μl of complete RPMI containing 0.86 mg/ml MTT was added to each well and the plates cultured for an additional 4 h. The plates were centrifuged again, the media removed and the well contents solubilized in 100% DMSO. The optical density at 560 nm of each well was determined and the averaged mean of the duplicate well calculated. The background OD560 value, determined from control wells receiving media containing no MTT, was subtracted from these values and the data normalized to that of the control wells (0 nM compound). IL-2 secretion by activated T cells was determined in the culture supernatants of these cells. The supernatants were assessed using the R&D Biosystems ELISA kit for human IL-2.

[3] = tested on: IL-2; assay: IL-2 secretion by peripheral blood T cells activated with PMA plus ionomycin (ELISA); assay type: cell-based, human; conditions: 24 h, between 0.01-10 nM
Protocol: Twenty ml aliquots of heparinized whole blood were subjected to density gradient centrifugation on Ficoll Hypaque. The buffy coat layers representing peripheral blood mononuclear cells (PBMCs) containing lymphocytes and monocytes were washed once, resuspended in RPMI 1640 containing 10% fetal calf sera and then depleted of B cells and monocytes with a T cell enrichment column (R&D Systems). The T cell preparations were centrifuged, resuspended in 5 ml of incomplete RPMI and counted using a hemocytometer.
Aliquots of each cell preparation (40,000 cells in 200 μl of incomplete RPMI) were placed in the wells of 96 well culture plates and cultured overnight at 37° C. under 5% CO2. […] The optical density at 560 nm of each well was determined and the averaged mean of the duplicate well calculated. The background OD560 value, determined from control wells receiving media containing no MTT, was subtracted from these values and the data normalized to that of the control wells (0 nM compound). IL-2 secretion by activated T cells was determined in the culture supernatants of these cells. The supernatants were assessed using the R&D Biosystems ELISA kit for human IL-2.
The release of IL-2 was also determined 24 h after stimulating peripheral blood T cells with PMA plus ionomycin, in the presence or absence of Psorberine and/or Calcipotriol. […]

[4] = tested on: Jurkat cells; assay: Viability of Jurkat cells (Trypan blue exclusion); assay type: cell-based
Protocol: The chemotaxis assay was corroborated by determining the viability of Jurkat cells. Viability of these cells either incubated in culture medium alone or with Psorberine or Calcipotriol under the same conditions as in the chemotaxis assay, was done by distinguishing dead from viable cells in the Trypan blue exclusion test. Viability of THP-1 cells was determined after incubating these cells with various concentrations of Psorberine for 4 h.

[5] = tested on: THP-1 cells; assay: MTT assay of THP-1 cell proliferation; assay type: cell-based; conditions: titration
Protocol: THP-1 cells were sub-cultured in 96 well culture plates at a density of 20,000 cells/well. LPS (100 ng/ml) and titrating amounts of Psorberine and/or Calcipotriol were then added to triplicate wells. The cells were cultured for 5 days, at which point the culture plates were centrifuged, the culture media removed and saved, and fresh media containing 0.863 mg/ml MTT added. After culturing for an additional 4 h, the plates were centrifuged again, the media removed from the formazan crystals and the well contents solubilized in DMSO. The absorbance of each well at 560 nm was measured. The data were normalized to the averaged results of the control wells receiving water. The culture supernatants were tested in ELISA (Bio-Source, International) for IL-8, TNF-α and IL-1β content. The effect of Psorberine on THP-1 cell proliferation was examined. […] The increase in the percentage of control seen in the MTT assay at the high concentrations of Psorberine (1:10 and 1:20 dilutions), is most probably due to the strong coloring of the compound (dark green). There is a very high OD recovered from MTT assay upon incubating […] cells with these dilutions of Psorberine.

[6] = tested on: Jurkat cells; assay: In vitro chemotaxis assay of Jurkat cells towards SDF-1α; assay type: cell-based; conditions: for Cell Number (migrated cells per filter) / Migration Index (MI): filters 1-4
Protocol: Jurakt cells ere grown in cultures in the presence of complete RPMI media. These cells were split one day prior to the assay. More than 99% viable cells were used in the chemotaxis assay. SDF-1α was purchased from Peprotech, Inc.
96 well plate chemotaxis chambers with a pore size of […] (ChemoTx, Neuro Probe, Inc.) were used in this assay. In the lower wells 30 μl of either RPMI plus 0.1% BSA (control), or 30 μl containing 1 μg/ml SDF-1α (positive chemotaxis) were placed. In other wells, 24 μl containing 1 μg/ml SDF-1α was added to 6 μl of media containing the appropriate concentrations of Psorberine, Calcipotriol or their combination. In the upper wells, 20 μl of media containing 20,000 cells (1×10^6/ml) either alone or in combinations with the compounds were placed. After 2 h, the upper part of the filters was washed with coton swaps to remove the non-migrating cells, and the filters were fixed with absolute methanol for 3 minutes. After this, the filters were stained with 15% Giemsa stain for 7.5 min. The filters were washed three times with distilled water, and the cells migrating to the lower wells were counted under light micriscope. For control (cells migrating in the absence of the chemoattractant), 7 filters were used, whereas 4 filters were used in the experimental conditions. Migration Index (MI) was calculated by dividing the number of cells migrating in the experimental filters by the average number of cells migrating in the control filters.

[7] = tested on: keratinocyte; conditions: Muller et al. 1995; cited from earlier work
[8] = 1 μg/ml SDF-1α + 20 nM Calcipotriol
[9] = 1 μg/ml SDF-1α + 80 nM Calcipotriol
[10] = 1 μg/ml SDF-1α + 160 nM Calcipotriol

## C=C1/C(=C\C=C2/CCC[C@]3(C)[C@@H]([C@H](C)/C=C/[C@@H](O)C4CC4)CC[C@@H]23)C[C@@H](O)C[C@@H]1O [Calcipotriol, calcipotriol]
[1]
  IL-2 release: slight increase
[2]; concentration 0.050 (unit not given)
  MTT % of Control: 109.0164%
[2]; concentration 0.100 (unit not given)
  MTT % of Control: 88.52%
[2]; concentration 0.500 (unit not given)
  MTT % of Control: 107.377%
[2]; concentration 1.000 (unit not given)
  MTT % of Control: 99.18%
[2]; concentration 5.000 (unit not given)
  MTT % of Control: 78.69%
[2]; concentration 10.000 (unit not given)
  MTT % of Control: 116.3934%
[2]; concentration 50.000 (unit not given)
  MTT % of Control: 113.1148%
[2]; concentration 100.000 (unit not given)
  MTT % of Control: 83.61%
[2]; absence or presence of PMA plus ionomycin
  T cell proliferation: Significant differences in T cell proliferation were not observed
[3]
  reduction of IL-2 concentration: 40-50%
[4]; 20 nM Calcipotriol
  # Dead Cells: 178
  # Viable Cells: 18
  % Viability: 91%
[4]; 80 nM Calcipotriol
  # Dead Cells: 175
  # Viable Cells: 17
  % Viability: 91%
[4]; 160 nM Calcipotriol
  # Dead Cells: 134
  # Viable Cells: 11
  % Viability: 92%
[5]
  effect of titrating levels on THP-1 cell proliferation: multi-phasic, with stimulation seen above concentrations of 1 nM
[6]; [8]
  Cell Number (migrated cells per filter): 240 and 200 and 155 and 170
  Migration Index (MI): 5.7 and 4.8 and 3.7 and 4.1
[6]; [9]
  Cell Number (migrated cells per filter): 240 and 160 and 180 and 220
  Migration Index (MI): 5.7 and 3.8 and 4.3 and 5.2
[6]; [10]
  Cell Number (migrated cells per filter): 200 and 198 and 150 and 205
  Migration Index (MI): 4.8 and 4.7 and 3.6 and 4.9
[6]; between 20-160 nM
  SDF-1α-induced Jurkat cell chemotaxis: did not affect

## COc1ccc2cc3[n+](cc2c1OC)CCc1cc2c(cc1-3)OCO2 [berberine]
[7]
  keratinocyte growth in vitro: inhibits
